Patent publication US20140228287A1, “1-[(3-CYANO-PYRIDIN-2-YL)METHYL]-3-METHYL-7-(2-BUTYN-1-YL)-8-[3-(R)-AMINO-PIPERIDIN-1-YL]-AXANTHINE FOR THE TREATMENT OF A METABOLIC DISORDER OF A PREDOMINANTLY CARNIVOROUS NON-HUMAN ANIMAL” (BOEHRINGER INGELHEIM VETMEDICA GMBH, priority 2010, published 2014)
Structures can show the parent of a compound that is named as a salt. Where two headings read alike, the source gives them in different places.

Key:
plasma DPP IV [1] = biological target: T1, plasma DPP IV (Rattus norvegicus, UniProt P14740); experiment: Plasma DPP IV activity after oral administration, rat; format: in vivo; conditions: for inhibition at 1 mg/kg: 1 mg/kg oral; for ED50: oral, read-out: ED50 for inhibition of plasma DPP IV activity
T1 construct: from tissue
Experimental: The effect of 1-[(3-cyano-pyridin-2-yl)methyl]-3-methyl-7-(2-butyn-1-yl)-8-[3-(R)-amino-piperidin-1-yl]-xanthine on plasma DPP IV activity after oral administration was investigated in the rat, the Beagle dog and the Rhesus monkey. These investigations were conducted as described in the following.
Male HanWistar rats (Crl:WI(Han)) were obtained from Charles River (Germany). Animals were fed ad libitum with a standard pelleted diet (Diet No. 3438, Provimi Kliba, Switzerland) and had free access to water. Animals were housed in groups with a 12 h/12 h light/dark cycle (lights out between 6 p.m. and 6 a.m.). The rats were used for the experiment at a body weight of about 260 g. Such freely fed male HanWistar rats (n=5 per group) were administered oral doses of vehicle or 1-[(3-cyano-pyridin-2-yl)methyl]-3-methyl-7-(2-butyn-1-yl)-8-[3-(R)-amino-piperidin-1-yl]-xanthine monohydrochloride at 0.1, 0.3, 1, and 3 mg/kg body weight. Blood samples were drawn from the retrobulbal venous plexus under isoflurane anaesthesia. Blood was collected in EDTA tubes prior to administration of vehicle or 1-[(3-cyano-pyridin-2-yl)methyl]-3-methyl-7-(2-butyn-1-yl)-8-[3-(R)-amino-piperidin-1-yl]-xanthine monohydrochloride and subsequently at 0.5, 1, 2, 3, 4, 7, and 24 hour time points post dose. Plasma was prepared following blood collection and frozen for determination of DPP-IV activity.

thrombin = thrombin (Homo sapiens, UniProt P00734); experiment: In vitro selectivity, human proteases: thrombin; format: biochemical; conditions: up to 100 μM
Description: In order to determine the in vitro selectivity of 1-[(3-cyano-pyridin-2-yl)methyl]-3-methyl-7-(2-butyn-1-yl)-8-[3-(R)-amino-piperidin-1-yl]-xanthine, the ability of this compound to inhibit a number of human proteases was investigated as described in Thomas et al. (2008), J. Pharmacol. Exp. Ther., vol. 325, p. 175-182, chapter In vitro DPP-4 Inhibition Assay, p. 176.

DPP IV = biological target: T2, DPP IV (Felis catus, UniProt Q9N2I7); experiment: Exploratory single dose PK/PD (0.01/0.1/1.0 mg/kg) in cats: DPP IV activity; format: in vivo; conditions: read-out: DPP IV activity in cat plasma; for response vs control in vivo at 0.01 mg/kg: 0.01 mg/kg single oral; for response vs control in vivo at 0.1 mg/kg: 0.1 mg/kg single oral; for response vs control in vivo at 1 mg/kg: 1 mg/kg single oral
T2 construct: Blood samples for the determination of this compound and DPP IV activity were collected; from tissue; host or cells: plasma of domestic short hair / purpose-bred cats dosed orally
Experimental: The investigation of the PK/PD values was conducted in the same way as in Example 7, with the variations described below.
The aim of this study was to investigate the PK/PD of 1-[(3-cyano-pyridin-2-yl)methyl]-3-methyl-7-(2-butyn-1-yl)-8-[3-(R)-amino-piperidin-1-yl]-xanthine monohydrochloride in the cat after a single oral administration of 0, 0.01, 0.1 and 1.0 mg/kg body weight of this compound (dosages were based on the free base).
Eleven clinically healthy male adult domestic short hair cats with a body weight range of 3.5-5.0 kg were used in this study. All animals were treated orally once via a stomach tube. Blood samples were drawn at 0 h (i.e. prior to treatment), 30 min as well as 1, 2, 4, 8, 12, 24, 36, 48, 72 and 96 h after treatment and the activity of DPP IV was determined like in Example 6.

M1 muscarinic receptors = M1 muscarinic receptors (Homo sapiens, UniProt P11229); experiment: Selectivity panel, radio ligand binding assay: M1; conditions: only interaction observed in full panel of receptors, ion channels and enzymes
Experimental: In selectivity assays as described in Dörje et al. (1991), J. Pharmacol. Exp. Ther., vol. 256, p. 727-733, chapter Radio ligand binding studies, p. 729, using the full panel of receptors, ion channels and enzymes, the only interaction observed with 1-[(3-cyano-pyridin-2-yl)methyl]-3-methyl-7-(2-butyn-1-yl)-8-[3-(R)-amino-piperidin-1-yl]-xanthine monohydrochloride was with M1 muscarinic receptors, with IC50 in a binding assay of 3 μM.

plasma DPP IV [2] = biological target: T3, plasma DPP IV (Mus musculus, UniProt P28843); experiment: Inhibition of plasma DPP IV activity in vitro, mouse plasma; format: biochemical
T3 construct: from tissue; host or cells: mouse plasma
Experimental: Studies were also conducted to assess the inhibitory effect of this compound on plasma DPP IV activity in several species.

GLP-1 = experiment: Single dose study (1.0/5.0/10.0 mg/kg) in cats: GLP-1 after feeding; format: in vivo, cat; conditions: single oral 1, 5, 10 mg/kg; feeding at 8 h after treatment
Experimental: Twelve clinically healthy male adult domestic short hair cats with a body weight range of 3.5-4.7 kg were used in this study. All animals were treated orally once via a stomach tube. Blood samples for pharmacokinetic and pharmacodynamic (DPP IV activity) investigations were drawn at 0 h (i.e. prior to treatment), 30 min as well as 1, 2, 4, 8, 8.5, 9, 12, 24, 36, 48, 72, 84 and 96 h after treatment. Blood samples for pharmacodynamic (glucagon-like peptide 1 concentrations) investigations were drawn at −16 (i.e. prior to feeding), −15.5, −15 h as well as at 8 h (i.e. prior to feeding), 8.5 and 9 h after treatment.

T2 sequence (Q9N2I7 38-765 limits assumed): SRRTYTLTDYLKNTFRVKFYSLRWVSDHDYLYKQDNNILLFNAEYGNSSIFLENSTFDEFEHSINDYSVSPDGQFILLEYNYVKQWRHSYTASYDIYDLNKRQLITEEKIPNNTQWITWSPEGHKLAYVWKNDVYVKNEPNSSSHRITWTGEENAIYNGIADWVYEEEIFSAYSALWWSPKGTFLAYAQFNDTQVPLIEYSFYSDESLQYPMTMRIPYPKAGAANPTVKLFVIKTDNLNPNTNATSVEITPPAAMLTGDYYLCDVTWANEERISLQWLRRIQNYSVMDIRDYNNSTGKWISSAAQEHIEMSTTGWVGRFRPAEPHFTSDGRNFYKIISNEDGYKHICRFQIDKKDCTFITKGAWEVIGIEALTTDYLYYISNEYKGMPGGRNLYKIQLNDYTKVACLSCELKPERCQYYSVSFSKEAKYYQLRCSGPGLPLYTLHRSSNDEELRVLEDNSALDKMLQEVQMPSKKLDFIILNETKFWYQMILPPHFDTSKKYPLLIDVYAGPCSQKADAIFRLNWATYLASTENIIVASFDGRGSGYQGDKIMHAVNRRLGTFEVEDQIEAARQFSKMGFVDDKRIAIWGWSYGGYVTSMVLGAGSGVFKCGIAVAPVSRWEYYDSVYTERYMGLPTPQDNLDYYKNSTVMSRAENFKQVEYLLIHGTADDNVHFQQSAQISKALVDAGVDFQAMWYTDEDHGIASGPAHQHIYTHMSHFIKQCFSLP
T1 sequence (P14740 37-767 limits assumed): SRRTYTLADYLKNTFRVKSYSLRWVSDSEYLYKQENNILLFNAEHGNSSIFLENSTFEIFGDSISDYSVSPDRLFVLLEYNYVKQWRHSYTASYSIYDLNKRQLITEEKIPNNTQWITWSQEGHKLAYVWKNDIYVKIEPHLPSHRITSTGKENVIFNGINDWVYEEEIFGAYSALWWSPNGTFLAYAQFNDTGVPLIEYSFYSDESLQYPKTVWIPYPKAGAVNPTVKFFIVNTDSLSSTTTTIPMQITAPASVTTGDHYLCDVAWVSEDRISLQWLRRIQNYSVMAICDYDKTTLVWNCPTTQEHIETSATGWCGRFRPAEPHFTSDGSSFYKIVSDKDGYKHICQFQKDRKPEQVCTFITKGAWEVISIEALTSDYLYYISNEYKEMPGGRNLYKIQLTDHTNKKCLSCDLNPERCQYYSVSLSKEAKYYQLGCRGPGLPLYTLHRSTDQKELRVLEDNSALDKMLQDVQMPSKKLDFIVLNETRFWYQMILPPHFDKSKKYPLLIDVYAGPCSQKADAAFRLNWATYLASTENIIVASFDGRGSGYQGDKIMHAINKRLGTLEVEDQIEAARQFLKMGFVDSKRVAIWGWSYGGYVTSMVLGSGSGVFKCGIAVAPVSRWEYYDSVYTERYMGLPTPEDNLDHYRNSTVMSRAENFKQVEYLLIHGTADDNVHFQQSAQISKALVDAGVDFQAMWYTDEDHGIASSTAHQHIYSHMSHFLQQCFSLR
T3 sequence (P28843 37-760 limits assumed): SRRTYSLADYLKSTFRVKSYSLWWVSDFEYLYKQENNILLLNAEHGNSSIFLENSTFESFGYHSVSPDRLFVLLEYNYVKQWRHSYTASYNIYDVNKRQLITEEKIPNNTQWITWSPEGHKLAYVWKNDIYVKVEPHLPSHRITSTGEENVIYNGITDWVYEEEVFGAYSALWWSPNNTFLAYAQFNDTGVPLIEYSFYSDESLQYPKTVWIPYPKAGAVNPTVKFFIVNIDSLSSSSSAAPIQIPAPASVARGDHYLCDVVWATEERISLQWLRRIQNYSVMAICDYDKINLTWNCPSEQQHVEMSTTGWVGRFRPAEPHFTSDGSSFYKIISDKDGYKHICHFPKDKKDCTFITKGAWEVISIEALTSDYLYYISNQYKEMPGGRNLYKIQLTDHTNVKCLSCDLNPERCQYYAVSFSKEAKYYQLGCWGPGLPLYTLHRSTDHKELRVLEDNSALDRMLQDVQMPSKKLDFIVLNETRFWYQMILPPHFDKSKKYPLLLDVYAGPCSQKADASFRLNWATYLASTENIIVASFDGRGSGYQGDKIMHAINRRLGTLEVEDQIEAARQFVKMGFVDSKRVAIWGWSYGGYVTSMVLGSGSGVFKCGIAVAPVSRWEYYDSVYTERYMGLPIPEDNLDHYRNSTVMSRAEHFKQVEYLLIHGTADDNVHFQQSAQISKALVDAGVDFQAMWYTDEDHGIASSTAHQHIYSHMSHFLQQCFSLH
Sequence of M1 muscarinic receptors (P11229 whole entry): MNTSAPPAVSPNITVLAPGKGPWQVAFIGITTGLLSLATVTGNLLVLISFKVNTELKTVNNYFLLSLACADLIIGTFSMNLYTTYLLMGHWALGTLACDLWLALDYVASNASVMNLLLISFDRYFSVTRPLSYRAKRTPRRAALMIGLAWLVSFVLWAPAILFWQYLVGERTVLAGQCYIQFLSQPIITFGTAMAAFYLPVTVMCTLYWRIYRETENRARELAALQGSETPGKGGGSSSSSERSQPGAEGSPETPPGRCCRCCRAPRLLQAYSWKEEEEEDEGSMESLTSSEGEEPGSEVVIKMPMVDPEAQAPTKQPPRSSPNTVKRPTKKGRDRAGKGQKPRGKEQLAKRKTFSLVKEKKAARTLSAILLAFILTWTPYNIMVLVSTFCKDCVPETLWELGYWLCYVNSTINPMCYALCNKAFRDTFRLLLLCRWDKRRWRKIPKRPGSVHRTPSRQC

Question: How did the inhibition at 1 mg/kg (plasma DPP IV [1]; 7 hours post dose) turn out when CC#CCn1c(N2CCC[C@@H](N)C2)nc2c1c(=O)n(Cc1ncccc1C#N)c(=O)n2C [1-[(3-cyano-pyridin-2-yl)methyl]-3-methyl-7-(2-butyn-1-yl)-8-[3-(R)-amino-piperidin-1-yl]-xanthine monohydrochloride] was run?
Answer: 86%

Question: What about the inhibition at 1 mg/kg (plasma DPP IV [1]; 24 hours post dose) of the same compound?
Answer: 64%

Question: What about the ED50 (plasma DPP IV [1]; 7 h post dose) of the same compound?
Answer: 0.4 mg/kg

Question: And the ED50 (plasma DPP IV [1]; 24 h post dose)?
Answer: 0.6 mg/kg

Question: What about the “inhibitory effect on thrombin” value (thrombin) of the same compound?
Answer: did not exert any inhibitory effect

Question: And the response vs control in vivo at 0.01 mg/kg (DPP IV; 0.5 h)?
Answer: 73%

Question: What about the response vs control in vivo at 0.01 mg/kg (DPP IV; 1 h) of the same compound?
Answer: 66%

Question: And the response vs control in vivo at 0.01 mg/kg (DPP IV; 2 h)?
Answer: 71%

Question: And the response vs control in vivo at 0.01 mg/kg (DPP IV; 4 h)?
Answer: 77%

Question: And the response vs control in vivo at 0.01 mg/kg (DPP IV; 8 h)?
Answer: 85%

Question: What about the response vs control in vivo at 0.01 mg/kg (DPP IV; 12 h) of the same compound?
Answer: 88%

Question: And the response vs control in vivo at 0.01 mg/kg (DPP IV; 24 h)?
Answer: 90%

Question: What about the response vs control in vivo at 0.01 mg/kg (DPP IV; 36 h) of the same compound?
Answer: 87%

Question: What about the response vs control in vivo at 0.01 mg/kg (DPP IV; 48 h) of the same compound?
Answer: 88%

Question: And the response vs control in vivo at 0.01 mg/kg (DPP IV; 72 h)?
Answer: 85%

Question: And the response vs control in vivo at 0.01 mg/kg (DPP IV; 96 h)?
Answer: 90%

Question: What about the response vs control in vivo at 0.1 mg/kg (DPP IV; 0.5 h) of the same compound?
Answer: 23%

Question: And the response vs control in vivo at 0.1 mg/kg (DPP IV; 1 h)?
Answer: 17%

Question: And the response vs control in vivo at 0.1 mg/kg (DPP IV; 2 h)?
Answer: 16%

Question: What about the response vs control in vivo at 0.1 mg/kg (DPP IV; 4 h) of the same compound?
Answer: 24%

Question: And the response vs control in vivo at 0.1 mg/kg (DPP IV; 8 h)?
Answer: 39%

Question: What about the response vs control in vivo at 0.1 mg/kg (DPP IV; 12 h) of the same compound?
Answer: 50%

Question: What about the response vs control in vivo at 0.1 mg/kg (DPP IV; 24 h) of the same compound?
Answer: 67%

Question: What about the response vs control in vivo at 0.1 mg/kg (DPP IV; 36 h) of the same compound?
Answer: 83%

Question: What about the response vs control in vivo at 0.1 mg/kg (DPP IV; 48 h) of the same compound?
Answer: 82%

Question: And the response vs control in vivo at 0.1 mg/kg (DPP IV; 72 h)?
Answer: 91%

Question: And the response vs control in vivo at 0.1 mg/kg (DPP IV; 96 h)?
Answer: 90%

Question: And the response vs control in vivo at 1 mg/kg (DPP IV; 0.5 h)?
Answer: 10%

Question: And the response vs control in vivo at 1 mg/kg (DPP IV; 1 h)?
Answer: 10%

Question: What about the response vs control in vivo at 1 mg/kg (DPP IV; 2 h) of the same compound?
Answer: 8%

Question: What about the response vs control in vivo at 1 mg/kg (DPP IV; 4 h) of the same compound?
Answer: 10%

Question: What about the response vs control in vivo at 1 mg/kg (DPP IV; 8 h) of the same compound?
Answer: 12%

Question: And the response vs control in vivo at 1 mg/kg (DPP IV; 12 h)?
Answer: 15%

Question: What about the response vs control in vivo at 1 mg/kg (DPP IV; 24 h) of the same compound?
Answer: 27%

Question: And the response vs control in vivo at 1 mg/kg (DPP IV; 36 h)?
Answer: 63%

Question: What about the response vs control in vivo at 1 mg/kg (DPP IV; 48 h) of the same compound?
Answer: 72%

Question: What about the response vs control in vivo at 1 mg/kg (DPP IV; 72 h) of the same compound?
Answer: 80%

Question: And the response vs control in vivo at 1 mg/kg (DPP IV; 96 h)?
Answer: 86%

Question: And the IC50 (M1 muscarinic receptors)?
Answer: 3 µM

Question: And the IC50 (plasma DPP IV [2])?
Answer: ~0.0017 µM

Question: And the “mean GLP-1 concentration after feeding” value (GLP-1)?
Answer: an increase of the mean GLP-1 concentration was observed after feeding
